One assay deals with CDK4. As to conditions: Finn et al. (2009); cited from earlier work.
For another assay, the system named is CDK6. To be noted: Finn et al. (2009); cited from earlier work.
In another assay the test system is H727. Description: CellTiter-Glo proliferation/survival assay, H727. The class given is cell-based. To be noted: Homo sapiens, NCI-H727, 120 h, 5 days, 0.005-100 nM. On the procedure: (§1) The panRAS antibody drug conjugates were tested against the following cancer cell lines: • LU65: JCRB No. JCRB0079 cultured in RPMI-1640+10% FBS • HPAC: ATCC No. CRL-2119 cultured in DMEM:HAM's F12+5% FBS • NCI-H727: ATCC No. CRL-5815 cultured in RPMI-1640+10% FBS • SW1271: ATCC No. CRL-2177 cultured in DMEM+10% FBS
(§2) The ability of the panRAS antibody drug conjugates to inhibit cell proliferation and survival was assessed using the Promega CellTiter-Glo® proliferation assay.
(§3) Cell lines were cultured in media that is optimal for their growth at 5% CO2, 37° C. in a tissue culture incubator. Prior to seeding for the proliferation assay, the cells were split at least 2 days before the assay to ensure optimal growth density. On the day of seeding, cell viability and cell density were determined using a cell counter (Vi-Cell XR Cell Viability Analyzer, Beckman Coulter). […] Plates were incubated at 5% CO2, 37° C. for 5 days in a tissue culture incubator, after which cell viability was assessed through the addition of 25 μL of CellTiter Glo® (Promega, cat #G7573), a reagent which lyses cells and measures total adenosine triphosphate (ATP) content. Plates were incubated at room temperature for 10 minutes to stabilize luminescent signals prior to reading using a luminescence reader (EnVision Multilabel Plate Reader, PerkinElmer). […]

A further assay concerns HPAC. Description: CellTiter-Glo proliferation/survival assay, HPAC. The class given is cell-based. As to conditions: Homo sapiens, 120 h, 5 days, 0.005-100 nM. As to the method:
as §1, §2, §3

In the next assay the test system is SW1271. Description: CellTiter-Glo proliferation/survival assay, SW1271. The class given is cell-based. To be noted: 120 h, 5 days, 0.005-100 nM. As to the method: as §1, §2, §3

These results are taken from patent US20260295067A1, “PANRAS INHIBITOR ANTIBODY-DRUG CONJUGATES AND METHODS OF USE THEREOF” (NOVARTIS AG, priority 2023, published 2026).

Each structure is given as a SMILES string.

`CC(=O)c1c(C)c2cnc(Nc3ccc(N4CCNCC4)cn3)nc2n(C2CCCC2)c1=O` [Palbociclib, 6-Acetyl-8-cyclopentyl-5-methyl-2-{[5-(1-piperazinyl)-2-pyridinyl]amino}pyrido[2,3-d]pyrimidin-7(8H)-one]: the concentration for half-maximal inhibition (IC50) is […] in the assay on CDK4 and 16 nM in the assay on CDK6.
For the molecule `C=CC(=O)N1CCN(c2nc(=O)n(-c3c(C)ccnc3C(C)C)c3nc(-c4c(O)cccc4F)c(F)cc23)[C@@H](C)C1` [Sotorasib], the half-maximal inhibitory concentration (IC50) in the assay on H727, in the assay on HPAC and in the assay on SW1271 was above 100 nM in each case.
